How the values were obtained:
[1] = test system: LAT-1; assay: Peptide-stimulated cAMP accumulation assay, lat-1-transfected COS-7 cells; format: cell-based, C. elegans; conditions: 1 mM peptide; for agonistic activity at LAT-1 in vitro (cAMP levels), in words: lat-1-transfected COS-7 cells, cAMP accumulation assay
Excerpt: Fig 3 An agonistic sequence C-terminal of the GPS cleavage site activates LAT-1 in vitro. (A) Evolutionary conservation of the putative agonistic region C-terminal of the GPCR proteolytic site (GPS) cleavage site in different latrophilin homologs. The GPS is part of the GPCR-autoproteolysis inducing (GAIN) domain, a characteristic feature of most aGPCRs which is located N-terminal of the first transmembrane domain (TM1). Sequences were retrieved from NCBI/GenBank and aligned utilizing Jalview 2 [36]. (B, F) Peptide-stimulated cAMP response of LAT-1 (B) and rat LPHN1 (F). COS-7 cells transfected with 0.2 μg empty control vector (pcDps) or plasmid encoding the latrophilin homolog, respectively, were stimulated with 1 mM peptide and cAMP levels were measured by cAMP accumulation assay. A mutated peptide served as negative control (CMP12/RMP13). […] Basal cAMP levels (empty vector, no peptide) are 5.3 ± 1.3 nM. Data are given as means ± SD of five independent experiments, each performed in triplicate. * p < 0.05; ** p < 0.01. (C) LPHN1 is expressed in COS-7 cells. Cells were transfected with 500 ng/well of empty vector (pcDps) or plasmid encoding either rat LPHN1, human P2Y12, or human V2R. […] Expression of the human vasopressin type 2 receptor V2R is shown as a comparison. The non-specific OD value (empty vector) was 0.06 ± 0.03 (set 0%) and the OD value of P2Y12 was 1.28 ± 0.12 (set 100%). Data are given as means ± SD of at least three independent experiments. *** p < 0.001. […] To analyze functional Gi coupling, the chimeric Gαqi4 protein was applied to reroute a potential Gi-protein pathway to the […]. For each assay, 1.5 μg/well of plasmid encoding LPHN1 was transfected (for Gi-protein coupling, co-transfection with 100 ng of chimeric Gαqi4 protein was performed). No activation of any of the signaling pathway was observed. Basal IP levels are: 220 ± 34 CPM/well (empty vector); 234 ± 39 CPM/well (empty vector + Gαqi4). Data are given as means ± SD of three independent experiments, each performed in triplicate. n.s. not significant. (E) LPHN1 couples to Gαs. COS-7 cells were transfected with increasing amounts of empty control vector (pcDps) or plasmid encoding either rat LPHN1, human V2R or human P2Y12, and cAMP levels were measured after 48 hours. cAMP concentrations are shown as fold change over empty control vector, basal cAMP levels: 6.2 ± 2.3 nM (200 ng); 6.1 ± 2.5 nM (300 ng); 5.1 ± 2.6 nM (400 ng); 6.1 ± 4.5 nM (500 ng). The Gs-protein coupling V2R served as positive and the predominantly Gi-protein coupling P2Y12 as negative control. Data are given as means ± SD of three independent experiments, each performed in triplicate. *** p < 0.001.
For functional assays, COS-7 cells were transiently transfected. To determine total as well as cell surface expression of receptors carrying N-terminal HA and C-terminal FLAG tags, indirect cellular enzyme-linked immunosorbent assays (ELISA) were employed. cAMP concentrations were measured using the ALPHAScreen cAMP assay kit (PerkinElmer Life Sciences) according to the manufacturer's protocol. IP formation was determined as previously described. Assay data was analyzed with GraphPad Prism version 5.0 (GraphPad Software). Statistics were performed using a two-way ANOVA in combination with Bonferroni as post-hoc test. For details see Supporting Experimental Procedures.
COS-7 cells were grown in Dulbecco's Modified Eagle Medium (DMEM) supplemented with 10% fetal bovine serum, 100 U/ml penicillin and 100 μg/ml streptomycin at 37°C and 5% CO2 in a humidified atmosphere. […]

[2] = test system: lat-1 mutant nematodes expressing lat-1 with a lat-2 GPS; assay: Peptide-mediated rescue of lethality in lat-1 mutants expressing lat-1 with a lat-2 GPS; format: in vivo, C. elegans; conditions: mothers and subsequently offspring soaked in 0.1 mM peptide, n ≥ 350
Description: Fig 4 The agonistic sequence of LAT-1 triggers receptor function in vivo. (A) Domain architecture of LAT-1 with an exchange of the GPS for the LAT-2 GPS. (B) Peptide-mediated rescue of lethality in lat-1 mutant nematodes expressing lat-1 with a lat-2 GPS. Mothers and subsequently offspring were soaked in 0.1 mM of peptide and individuals reaching adulthood were scored (n ≥ 350). […] Negative controls: mutated peptide CMP12 and a peptide derived from rat LPHN1 (RP13). Data are shown as means ± SD, **p<0.01; ***p<0.001. (C) Transgenically expressed lat-1 ^T530A/F532A::gfp exclusively rescues fertility defects of lat-1 mutants. Nematodes expressing lat-1 ^T530A/F532A::gfp in a lat-1 mutant background display lethality but no fertility defects compared to a lat-1::gfp transgenic control. (D) Expression and protein localization of lat-1::gfp (top) is indistinguishable from lat-1 ^T530A/F532A::gfp (bottom). Arrows indicate expression.
All compounds were obtained from Sigma Aldrich. Forskolin was dissolved in DMSO to 10 mM, 3-isobutyl-1-methylxanthine (IBMX) in Dent´s buffer to 10 mM, 8-bromoadenosine 3′,5′-cyclic monophosphate (8-Br-cAMP) in 1 N ammonium hydroxide to 250 mM and 2',5'-dideoxyadenosine (ddA) was diluted in DMSO to 100 mM prior to final dilution in Dent´s buffer. Peptides were synthesized (see Supporting Experimental Procedures) and dissolved in DMSO to 100 mM prior to final dilution in M9. Worms were incubated in 80 μM forskolin, 10 mM IBMX, 0.25 mM 8-Br-cAMP, 1 mM ddA or 0.1 mM peptide solution, respectively, containing E. coli OP50.
The lethality rescue assay was conducted as previously described. Fifty L4 hermaphrodites were transferred into wells of a 72-well flat-bottom Terasaki plates (Greiner Bio-One) containing OP50 and allowed to lay eggs for 24 hours at 22°C. Five to ten eggs were transferred into fresh wells with corresponding solutions and incubated at 22°C. The number of dead/surviving embryos was scored 24 hours later, the number of adult animals 48 hours later on an inverted microscope. Data were examined with an unpaired two-tailed t test for each genotype and condition.

[3] = test system: lat-1(ok1465) nematodes; assay: Lethality rescue assay in lat-1 mutant nematodes; format: in vivo; conditions: L4 larvae and subsequently embryos incubated; forskolin 80 μM, IBMX 10 mM, 8-Br-cAMP 0.25 mM
Excerpt: Fig 2 Division plane defects in lat-1 mutant embryos are rescued by elevation of intracellular cAMP via a Gs protein/adenylyl cyclase pathway. […] In wild-type embryos treated with the RNAi control vector L4440 ABal divides in an anterior-posterior direction (A) whereas in treated lat-1 mutants the division plane is almost perpendicular to MS (B). gsa-1 RNAi by feeding over two generations leads to a turning of the F2 ABal division plane in a direction similar to that in lat-1 mutants (C). F2 lat-1; gsa-1(RNAi) embryos show a similar ABal division plane to lat-1 mutants (D). (E) Cell division plane angles of ABal relative to MS after knockdown of gsa-1. […] The vector L4440 served as negative control. Data are shown as means ± SD. * p < 0.05; *** p < 0.001; n ≥ 11. (F) cAMP levels are reduced in lat-1 embryos compared to a control wild-type population. cAMP levels were measured after lysis (15 μg protein) by cAMP accumulation assay. Assays were performed in three independent experiments, data are given as means ± SD. ** p < 0.01. (G) Rescue of developmental lethality in lat-1 nematodes treated with compounds promoting cAMP accumulation: forskolin (80 μM), IBMX (10 mM) and 8-Br-cAMP (0.25 mM). Mothers and subsequently offspring of wild-type and lat-1 individuals were incubated and individuals reaching adulthood were scored (n = 410). As controls, nematodes were incubated in solvent without drug (mock). Data are shown as means ± SD. * p < 0.05; ** p < 0.01; *** p < 0.001. (H) Forskolin increases cAMP levels in C. elegans embryos and adults. lat-1 mutants and subsequently embryos were incubated with 80 μM forskolin. […] As controls, nematodes were treated with 0.8% DMSO lacking forskolin (mock). Basal cAMP levels of mock control are: 0.70 ± 0.14 nM (wild-type embryos); 0.37 ± 0.19 nM (lat-1 embryos); 1.9 ± 0.7 nM (wild-type adults); 2.3 ± 0.8 nM (lat-1 adults). Assays were performed in three independent experiments, data are given as means ± SD. * p < 0.05; ** p < 0.01; *** p < 0.001. (I-L) Relative positions of ABala, ABalp, and MS in an AB^4 embryo. Schematic representation (top) and DIC microscopy (bottom), scale bars = 10 μm. In wild-type embryos (I) and embryos incubated in 80 μM forskolin for 120 minutes (K) ABal divides in an anterior-posterior direction with only ABalp forming an interface with MS. In lat-1 mutants the division plane is skewed resulting in ABala and ABalp contacting MS (J). lat-1 embryos treated with 80 μM forskolin for 120 minutes display wild-type division and cell interfaces (L). (M) Arrangement of blastomeres in the 12-cell stage embryo. […] The right-hand side is two views of the mean positions of the blastomeres. The spheres are enlarged to convey an impression of the contacts. Forskolin turns the ABal spindle in the mutant in a more anterior direction. (N) Cell division plane angles of ABal relative to MS of untreated wild-type/lat-1 controls and wild-type/lat-1 embryos after incubation of mothers and subsequently embryos for 48 hours in 80 μM forskolin. Upon forskolin treatment, mutant embryos display a wild-type division angle. As controls, nematodes were treated with 0.8% DMSO lacking forskolin (mock). Data are shown as average angles ± SD, *** p < 0.001; n ≥ 12. (O) Forskolin reduces the contact length of ABala to MS. Ratio of relative contact lengths of ABala to MS and ABalp to MS cells lat-1 embryos untreated (control, n = 10) and after incubation of mothers and subsequently embryos for 48 hours in 80 μM forskolin (n = 11). […] Data were calculated from pixel analyses utilizing DIC images and are shown as means ± SD, ** p < 0.01.
All compounds were obtained from Sigma Aldrich. Forskolin was dissolved in DMSO to 10 mM, 3-isobutyl-1-methylxanthine (IBMX) in Dent´s buffer to 10 mM, 8-bromoadenosine 3′,5′-cyclic monophosphate (8-Br-cAMP) in 1 N ammonium hydroxide to 250 mM and 2',5'-dideoxyadenosine (ddA) was diluted in DMSO to 100 mM prior to final dilution in Dent´s buffer. […]

Compound	agonistic activity at LAT-1 in vitro (cAMP levels), in words [1]	rescue of tissue polarity phenotype / activity in vivo, in words [2]	effect on embryonic lethality of lat-1 worms, in words [3]	increase of cAMP concentration above basal levels ([1]; lat-1-transfected COS-7 cells (0.2 μg plasmid), ALPHAScreen cAMP assay, means of five independent experiments, each in triplicate)	rescue of lethality (individuals reaching adulthood) ([2]; means ± SD, untreated controls 26 ± 7%)
CP9: peptide comprising the LAT-1 sequence C-terminal of the GPS cleavage site (THFAVLMDV)	no agonistic activity in vitro	not display any activity in vivo			
CP10: peptide comprising the LAT-1 sequence C-terminal of the GPS cleavage site (THFAVLMDVR)	no agonistic activity in vitro	not display any activity in vivo			
CC(C)Cn1c(=O)n(C)c(=O)c2[nH]cnc21 [IBMX, 3-isobutyl-1-methylxanthine]			amelioration of embryonic lethality		
CP14: peptide comprising the LAT-1 sequence C-terminal of the GPS cleavage site (THFAVLMDVRGHDL)	no agonistic activity in vitro	not display any activity in vivo			
CP12: peptide of 12 amino acids comprising the LAT-1 sequence C-terminal of the GPS cleavage site (THFAVLMDVRGH)	increased cAMP levels	efficiently rescued		1.6 fold	
Nc1ncnc2c1nc(Br)n2[C@@H]1O[C@@H]2COP(=O)(O)O[C@H]2[C@H]1O [8-Br-cAMP, 8-bromoadenosine 3′,5′-cyclic monophosphate]			amelioration of embryonic lethality		
CP13: peptide of 13 amino acids comprising the LAT-1 sequence C-terminal of the GPS cleavage site (THFAVLMDVRGHD)	increased cAMP levels	efficiently rescued			46 ± 12%
CMP12: CP12-derived peptide with positions +1 (T530) and +3 (F532) mutated to alanine (AHAAVLMDVRGH)	did not display any activity	not display any activity in vivo			
